Entries after “also recorded” stand apart in the source; their conditions may differ. Where two headings read alike, the source gives them in different places. Bridge positions count the residues as written; N and C are the ends. Square brackets hold non-standard residues; d marks the D form. Ends that are not written are not given here. Peptide text beside a SMILES is read from it.
What was measured:
AgrC-I receptor [1] = target: T1, AgrC-I receptor (Staphylococcus epidermidis, UniProt Q5HMY3); experiment: cell-based; assay type: cell-based, S. epidermidis; conditions: for EC50 in AgrC-I: activation dose response in the presence of 50 nM S. epidermidis AIP-II; for IC50 in AgrC-I: antagonism dose response, peptide alone, Group-I GFP reporter strain, 24 h; for Mode/strength of activity toward AgrC-I (Group I), in words: dose response
Protocol: The initial set of 14 analogs (listed in Table 1) was synthesized using solid-phase peptide chemistry and purified to homogeneity using previously established HPLC methods (59). Each analog was tested for its ability to modulate the activity of the AgrC-I receptor using a wild-type S. epidermidis Group-I fluorescence reporter strain. This strain contained a reporter plasmid encoding a gfp gene fused to the P3 promoter found upstream of RNAIII (36).
(§1) Biological reagents, strains, and general methods. All standard reagents were purchased from commercial sources and used according to enclosed instructions. The S. epidermidis fluorescence reporter strains AH3408 (Group-I), AH3567 (Group-II), and AH3409 (Group-III) were cultured in Tryptic Soy Broth (TSB, from Sigma) augmented with 10 μg/mL of erythromycin (36). The S. epidermidis wild-type strain RP62A (Group-I) was cultured in TSB (from Sigma or EMD Millipore). The S. aureus fluorescence reporter strains AH1677 (Group-I), AH430 (Group-II), AH1747 (Group-III), and AH1872 (Group-IV) were cultured in Brain Heart Infusion (BHI, from Teknova) augmented with 10 μg/mL of chloramphenicol (65). All cultures were grown at 37° C. with shaking (200 rpm) unless noted otherwise. Absorbance and fluorescence measurements were obtained using a Biotek Synergy 2 microplate reader operating Gen5 data analysis software. IC50 values and EC50 values were determined from sigmoidal curve fits using GraphPad Prism software (v. 6.0).
(§2) Fluorescence reporter assay protocol. […] Each peptide solution was tested in triplicate. […] Plates were then incubated at 37° C. for 24 h. Fluorescence (EX 500 nm/EM 540 nm) and OD600 of each well was measured using a plate reader, and the fluorescence values were normalized to the DMSO control.
(§3) The remaining steps of the fluorescence assay were the same as above.

AgrC-II = conditions: for Activity toward Group-II at lower concentration, in words: single concentration 100 nM (or 1 μM); for potency estimated from few doses: single replicate dose response, Table 3; for Mode/strength of activity toward AgrC-II (Group II), in words: dose response
Text: (§4) However, the biological significance of this agr interference remains unclear, although it has been hypothesized to potentially play a role in competition between different groups in a mixed bacteria milieu (18). […] To this end, the AIP analogs discussed above were screened in GFP reporter strains of Groups-II and -III S. epidermidis to complement the Group-I S. epidermidis data in Tables 1 and 2 (see Methods; FIGS. 7A and 7B).
as §1, §2, §3

AgrC-III = conditions: for Activity toward Group-III at lower concentration, in words: single concentration 100 nM (or 1 μM)
Text: as §4, §1, §2, §3

AgrC-I receptor [2] = target: T1, AgrC-I receptor; assay type: cell-based, S. epidermidis; conditions: single replicate dose response, Table 3
[3] = system: S. epidermidis Group-I RP62A biofilm; conditions: read-out: IC50 of biofilm growth inhibition, 24 h static, CV staining
Protocol: as §1
Crystal violet biofilm assay protocol. […] Each solution was tested in triplicate.

[4] = read-out: AgrC-I: IC50 (estimated)
[5] = read-out: AgrC-II: EC50 (estimated)
[6] = dose response antagonism assay, FIGS. 3A/3B
[7] = read-out: AgrC-II: IC50 (estimated)
[8] = read-out: AgrC-I: EC50 (estimated)

T1 sequence (Q5HMY3 entry or part of it): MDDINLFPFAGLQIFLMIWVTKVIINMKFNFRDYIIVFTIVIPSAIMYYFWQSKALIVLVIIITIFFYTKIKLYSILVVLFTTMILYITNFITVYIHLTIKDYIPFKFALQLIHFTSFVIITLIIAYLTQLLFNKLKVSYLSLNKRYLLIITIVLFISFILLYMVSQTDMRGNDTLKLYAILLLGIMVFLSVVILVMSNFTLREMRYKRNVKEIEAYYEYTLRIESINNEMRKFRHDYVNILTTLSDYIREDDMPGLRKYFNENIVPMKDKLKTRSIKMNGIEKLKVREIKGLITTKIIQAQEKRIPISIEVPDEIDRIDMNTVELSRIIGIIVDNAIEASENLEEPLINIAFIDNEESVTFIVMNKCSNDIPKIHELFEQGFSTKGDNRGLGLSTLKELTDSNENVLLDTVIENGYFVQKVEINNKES

| Molecule | EC50 in AgrC-I (AgrC-I receptor [1]) | IC50 in AgrC-I (AgrC-I receptor [1]) | Mode/strength of activity toward AgrC-I (Group I), in words (AgrC-I receptor [1]) | also measured |
| --- | --- | --- | --- | --- |
| D-S-V-(C-A-S-Y-A) (DSVCASYA; bridge 4-C; also: thiolactone between Cys4 side chain and C-terminus) [AIP-I F8A] | Inactive^c | Inactive^c | – | – |
| CC(C)[C@@H](NC(=O)[C@H](CO)NC(=O)[C@@H](N)CC(=O)O)C(=O)N[C@H]1CSC(=O)[C@H](Cc2ccccc2)NC(=O)[C@H](Cc2ccc(O)cc2)NC(=O)[C@H](CO)NC(=O)[C@H](C)NC1=O [AIP-I D-V3, D-S-DV-(C-A-S-Y-F)] (H-DS[dV]CASYF; thioester 4-C) | – | – | – | Activity toward Group-I at lower concentration, in words (AgrC-I receptor [1]; single concentration 100 nM (or 1 μM)): lost its inhibitory activity; Activity toward Group-II at lower concentration, in words (AgrC-II): remained an antagonist; Activity toward Group-III at lower concentration, in words (AgrC-III): remained an antagonist |
| KYNVCSNYL [AIP-II 9aa P4V, K-Y-N-V-C-S-N-Y-L] | – | – | antagonist | potency estimated from few doses (AgrC-I receptor [2]; [4]): 45 nM; potency estimated from few doses (AgrC-II; [5]): 114 nM |
| CC(C)[C@H](NC(=O)[C@H](CO)NC(=O)[C@@H](N)CC(=O)O)C(=O)N[C@H]1CSC(=O)[C@@H](Cc2ccccc2)NC(=O)[C@H](Cc2ccc(O)cc2)NC(=O)[C@H](CO)NC(=O)[C@H](C)NC1=O [AIP-I D-F8, D-S-V-(C-A-S-Y-DF)] (H-DSVCASY[dF]; thioester 4-C) | – | – | maintained agonistic activity | – |
| CC(C)[C@H](NC(=O)[C@H](CO)NC(=O)[C@H](C)N)C(=O)N[C@H]1CSC(=O)[C@H](Cc2ccccc2)NC(=O)[C@H](Cc2ccc(O)cc2)NC(=O)[C@H](C)NC(=O)[C@H](C)NC1=O [AIP-I D1AS6A, A-S-V-(C-A-A-Y-F)] (H-ASVCAAYF; thioester 4-C) | – | – | – | IC50 [3]: 18 nM |
| C[C@H](N)C(=O)N[C@@H](CO)C(=O)N[C@@H](C)C(=O)N[C@H]1CSC(=O)[C@H](Cc2ccccc2)NC(=O)[C@H](Cc2ccc(O)cc2)NC(=O)[C@H](C)NC(=O)[C@H](C)NC1=O [AIP-I D1AS6AV3A, A-S-A-(C-A-A-Y-F)] (H-ASACAAYF; thioester 4-C) | – | – | – | IC50 against AgrC-II, in words (AgrC-II; [6]): subnanomolar to low nanomolar range; Activity toward Group-II at lower concentration, in words (AgrC-II): strongly inhibited; IC50 against AgrC-III, in words (AgrC-III; [6]): subnanomolar to low nanomolar range; Activity toward Group-III at lower concentration, in words (AgrC-III): strongly inhibited |
| CC(C)C[C@@H]1NC(=O)[C@H](CO)NC(=O)[C@H](CO)NC(=O)[C@@H](NC(=O)[C@H](C)NC(=O)[C@H](CC(N)=O)NC(=O)[C@@H](NC(=O)CN)C(C)C)CSC(=O)[C@H](Cc2ccccc2)NC1=O [S. aureus AIP-II, G-V-N-A-(C-S-S-L-F), reference compound] (H-GVNACSSLF; thioester 5-C) | – | – | relatively strong AgrC-I antagonist | – |
| CC(=O)N[C@H]1CSC(=O)[C@H](CC(C)C)NC(=O)[C@H](Cc2ccc(O)cc2)NC(=O)[C@H](CC(N)=O)NC(=O)[C@H](CO)NC1=O [tAIP-II, Ac-(C-S-N-Y-L)] (Ac-CSNYL; thioester 1-C) | – | – | dramatic reduction in inhibitory activity | Activity against Group-III, in words (AgrC-III; single concentration 10 μM): inactive |
| I-N-(C-D-F-L-L) [S. aureus AIP-III, reference compound] | Inactive^c | Inactive^c | – | – |
| D-S-V-(DC-A-S-Y-F) (DSV[dC]ASYF; bridge 4-C; also: thiolactone between Cys4 side chain and C-terminus) [AIP-I D-C4] | Inactive^c | Inactive^c | – | – |
| D-S-V-(C-A-S-DY-F) (DSVCAS[dY]F; bridge 4-C; also: thiolactone between Cys4 side chain and C-terminus) [AIP-I D-Y7] | Inactive^c | Inactive^c | complete loss of activity | – |
| KYVPCSNYL [AIP-II 9aa N3V, K-Y-V-P-C-S-N-Y-L] | – | – | antagonist | potency estimated from few doses (AgrC-I receptor [2]; [4]): 4.1 nM; Mode/strength of activity toward AgrC-II (Group II), in words (AgrC-II): antagonist; potency estimated from few doses (AgrC-II; [7]): 108 nM |
| D-S-V-(C-DA-S-Y-F) (DSVC[dA]SYF; bridge 4-C; also: thiolactone between Cys4 side chain and C-terminus) [AIP-I D-A5] | Inactive^c | Inactive^c | – | – |
| Y-S-T-(C-D-F-I-M) (YSTCDFIM; bridge 4-C) [S. aureus AIP-I, reference compound] | Inactive^c | Inactive^c | – | – |
| CC(C)C[C@@H]1NC(=O)[C@H](Cc2ccc(O)cc2)NC(=O)[C@H](CO)NC(=O)[C@H](C)NC(=O)[C@@H](NC(=O)[C@@H]2CCCN2C(=O)[C@H](CC(N)=O)NC(=O)[C@H](Cc2ccc(O)cc2)NC(=O)[C@H](CCCCN)NC(=O)[C@H](C)NC(=O)[C@H](C)NC(=O)[C@@H](N)CC(N)=O)CSC1=O [AIP-III, N-A-A-K-Y-N-P-(C-A-S-Y-L), reference compound] (H-NAAKYNPCASYL; thioester 8-C) | – | – | inhibit | – |
| CC(C)C[C@@H]1NC(=O)[C@H](Cc2ccc(O)cc2)NC(=O)[C@H](CC(N)=O)NC(=O)[C@H](CO)NC(=O)[C@@H](NC(=O)[C@@H]2CCCN2C(=O)[C@@H](N)CC(N)=O)CSC1=O [AIP-II 7aa, N-P-(C-S-N-Y-L)] (H-NPCSNYL; thioester 3-C) | – | – | dramatic reduction in inhibitory activity | – |
| CC(=O)N[C@H]1CSC(=O)[C@H](Cc2ccccc2)NC(=O)[C@H](Cc2ccc(O)cc2)NC(=O)[C@H](CO)NC(=O)[C@H](C)NC1=O [tAIP-I, Ac-(C-A-S-Y-F)] (Ac-CASYF; thioester 1-C) | – | – | weak inhibitory activity | – |
| CC(C)C[C@@H]1NC(=O)[C@H](Cc2ccc(O)cc2)NC(=O)[C@H](CC(N)=O)NC(=O)[C@H](CO)NC(=O)[C@@H](NC(=O)[C@@H]2CCCN2C(=O)[C@H](CC(N)=O)NC(=O)[C@H](Cc2ccc(O)cc2)NC(=O)[C@H](CCCCN)NC(=O)[C@H](CO)NC(=O)[C@H](C)NC(=O)[C@@H](N)CC(N)=O)CSC1=O [AIP-II, N-A-S-K-Y-N-P-(C-S-N-Y-L), reference compound] (H-NASKYNPCSNYL; thioester 8-C) | – | – | inhibit | – |
| D-S-V-(C-A-S-A-F) (DSVCASAF; bridge 4-C; also: thiolactone between Cys4 side chain and C-terminus) [AIP-I Y7A] | Inactive^c | Inactive^c | – | Activity against Group-I, in words (AgrC-I receptor [1]; single concentration 10 μM): inactive |
| KYNVCANYL [AIP-II 9aa P4V S6A, K-Y-N-V-C-A-N-Y-L] | – | – | inactive | potency estimated from few doses (AgrC-II; [5]): > 7000 nM |
| KYNVCSSYL [AIP-II 9aa P4V N7S, K-Y-N-V-C-S-S-Y-L] | – | – | switched; also recorded: antagonist | potency estimated from few doses (AgrC-I receptor [2]; [8]): > 1800 nM; potency estimated from few doses (AgrC-II; [7]): 6.5 nM |
| KYLPCSNYL [AIP-II 9aa N3L, K-Y-L-P-C-S-N-Y-L] | – | – | antagonist | potency estimated from few doses (AgrC-I receptor [2]; [4]): 9.4 nM; Mode/strength of activity toward AgrC-II (Group II), in words (AgrC-II): antagonist; potency estimated from few doses (AgrC-II; [7]): 70.7 nM |
| KYNVCSAYL [AIP-II 9aa P4V N7A, K-Y-N-V-C-S-A-Y-L] | – | – | activating; also recorded: agonist | potency estimated from few doses (AgrC-I receptor [2]; [8]): > 1200 nM; potency estimated from few doses (AgrC-II; [5]): > 600 nM |

Reference: patent US12662513B2, “Peptidic modulators of quorum sensing in Staphylococcus epidermidis” (priority 2016, dated 2026)
